No end group written: not given here.

This note sets out measurements from US7972772B2, “KIF11 and method for diagnosing non-small cell lung cancer” (Oncotherapy Science, Inc., priority 2004, dated 2011).

The subject of test [1] is A549 cells. The experiment in a line: Nocodazole treatment of A549 cells, immunocytochemistry. In kind it is cell-based, human. As to conditions: 10 μM, four hours. The text has this:
We also investigated the endogenous location of KOC1 and KIF11 particles on the ultrafine structure of microtubules bridging individual A549 cells by an immunocytochemical study, using affinity-purified anti-KOC1- or anti-KIF11 for primary antibody and Alexa594-labeled anti-rabbit IgG for secondary antibody (Molecular Probe) and anti-alpha-tubulin-FITC monoclonal antibody. […] Moreover, no particle was found on the residual structure between the cells. […] To further clarify the detailed mechanism by which the KOC1-KIF11 complex transports mRNAs in NSCLC cells, we have searched for other component(s) that might be interacting with KIF11. Immunoprecipitation with anti-KIF11 polyclonal antibody using a lysate of LC319 cells identified a 150-kDa protein, which was later determined to be a dynactin 1 (DCTN1; p150, glued homolog, Drosophila) by MALDI-TOF mass-spectrometric analysis. DCTN1 is the largest subunit of DCTN, which binds to the cytoplasmic motor-protein dynein and activates vesicle transport along microtubules (Holzbaur, E. L. & Tokito, M. K. Genomics 31, 398-399 (1996); Tokito, M. K. et al., Mol. Biol. Cell 7, 1167-1180 (1996)), or binds to KIF11 to probably participate in centrosome separation (Blangy, A. et al., J. Biol. Chem. 272, 19418-19424 (1997)). […]

Test [2] relates to COS-7 cells. The experiment in a line: Growth of COS-7 cells with NMU in the medium. In kind it is cell-based. The conditions noted are these: addition into the medium, dose-dependent.
Test [3] concerns the target T1, endogenous GHSR1b and NTSR1 on PC-14 cells (Homo sapiens, UniProt P30989+Q92847).
T1 construct: endogenous in cells; host or cells: PC-14
Put plainly: Receptor-ligand binding assay on PC-14 cells. The method, then: (§1) To further confirm binding of NMU-25 to the endogenous candidate receptors on the NSCLC cells, we performed receptor-ligand binding assay using the LC319 and PC-14 cells. Briefly, these cells trypsinized were seeded onto 96-well black-wall, clear-bottom microtiter plates 24 hours prior to the assay. The medium was removed and the cells were incubated with Cy5-NMU-25 with a 10-fold excess of unlabeled competitor. The plate was incubated in the dark for 24 hours at 37° C. and was scanned on the 8200 Cellular Detection System (Applied Biosystems). 8200 Analysis Software creates a digitized gray scale image, quantitates the amount of fluorescence bound on the surface of each cell, and enumerates the fluorescent cells.

Test [4] addresses T2, endogenous GHSR1b and NTSR1 on LC319 cells (Homo sapiens, UniProt P30989+Q92847).
T2 construct: endogenous in cells; host or cells: LC319
The experiment in a line: Receptor-ligand binding assay on LC319 cells. As to the method: as §1

The test system of test [5] is A549 cells. The experiment in a line: Monastrol treatment of A549 cells, microscopy and time-lapse video-microscopy. Type of test: cell-based, human. As to conditions: most non-mitotic cells.
Test [6] has as its system FOXM1. The experiment in a line: Induction of FOXM1 in LC319 cells, semiquantitative RT-PCR. In kind it is cell-based, human. As to conditions: LC319, 100 μM, versus BSA control. The method, then: Expression of the candidate genes was additionally detected by semiquantitative RT-PCR using mRNAs isolated at 72 and 96 hours from LC319 cells treated with 1 μM NMU-25 or BSA at the time point of 0 and 48 hours.
Therefore, we chose FOXM1 for further analysis. To determine specific induction of the FOXM1 by the NMU ligand-receptor signaling, LC319 cells expressing GHSR1b and NTSR1 were cultured in the presence of NMU-25 or BSA (control) at final concentrations of 100 μM in the culture media.

The target of test [7] is T3, GHSR1b/NTSR1 (Homo sapiens, UniProt P30989+Q92847).
T3 construct: endogenous in cells; host or cells: LC319
The experiment in a line: Intracellular Ca2+ mobilization assay in LC319 cells. In kind it is cell-based. As to the method:
Trypsinized LC319 cells were seeded onto poly-D-lysine coated 384-well black-wall, clear-bottom microtiter plate (1.0×10^4 cells/ml) 24 hours prior to assay. Cells were loaded for 1 hour with […] Fluo-4-AM fluorescent indicator dye in assay buffer (Hank's balanced salts solution, 20 mM HEPES, 2.5 mM probenecid), washed three times with assay buffer, and then returned to the incubator for 10 min before assay on a fluorometric imaging plate reader (FLIPR, Molecular Devices). Maximum change in fluorescence over base line was used to determine the response of the cells to the NMU-25 peptides stimulation.
In general terms: Calcium flux is commonly read through the fluorescence of an indicator in the cells.

The subject of test [8] is GHSR1b. Put plainly: Ligand-receptor binding assay, COS-7 cells transfected with GHSR1b. Further details: species or system human. As to the method:
(§2) To identify direct binding of NMU-25 to its candidate receptors, GHSR1a, GHSR1b and NTSR1, the following experiments were performed. The entire coding region of each receptor gene was amplified by RT-PCR using primers
(§3) The products were digested with EcoR1 and BainH1 and cloned into appropriate sites of p3XFLAG-CMV10 vector (Sigma-Aldrich Co.). COS-7 cells were transfected with GHSR1b or NTSR1 expression plasmids using FuGENE6, as described above. Transfected COS-7 cells were cultured with 0.5 μM rhodamine-labeled NMU-25 peptide (NMU-25-rhodamine: Phoenix Pharmaceuticals. Inc.) for 12 hours, washed five times in PBS(−), and fixed in 4% paraformaldehyde solution for 60 min at room temperature. Then the cells were incubated with antibodies to FLAG-tagged GHSR1a, GHSR1b, or NTSR1 proteins (Sigma-Aldrich Co.), stained with a goat anti-mouse secondary antibody conjugated to FITC (Cappel) and viewed under laser-confocal microscopy (TCS SP2 AOBS: Leica Microsystems). […]
(§4) To confirm the binding of NMU-25 to the candidate receptors, flow-cytometric analysis was performed using the same series of COS-7 cells. […] The population of cells binding to rhodamine-labeled NMU-25 was determined by flow cytometry.

In test [9] the test system is NTSR1. The experiment in a line: Ligand-receptor binding assay, COS-7 cells transfected with NTSR1. Further details: species or system human. The method, then:
as §2, §3, §4

Setting [10] is: COS-7, NMU-25-rhodamine 0.5 μM, 12 hours.

T3 sequence (Q92847 1-289 isoform Q92847-2): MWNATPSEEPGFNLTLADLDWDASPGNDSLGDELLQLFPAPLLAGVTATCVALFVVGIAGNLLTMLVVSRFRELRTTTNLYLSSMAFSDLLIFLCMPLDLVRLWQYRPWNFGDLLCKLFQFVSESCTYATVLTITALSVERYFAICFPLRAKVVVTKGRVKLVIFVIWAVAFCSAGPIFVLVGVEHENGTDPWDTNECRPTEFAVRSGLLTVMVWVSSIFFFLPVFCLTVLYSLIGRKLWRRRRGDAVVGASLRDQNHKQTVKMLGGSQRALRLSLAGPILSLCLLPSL
T3 sequence (P30989 whole entry): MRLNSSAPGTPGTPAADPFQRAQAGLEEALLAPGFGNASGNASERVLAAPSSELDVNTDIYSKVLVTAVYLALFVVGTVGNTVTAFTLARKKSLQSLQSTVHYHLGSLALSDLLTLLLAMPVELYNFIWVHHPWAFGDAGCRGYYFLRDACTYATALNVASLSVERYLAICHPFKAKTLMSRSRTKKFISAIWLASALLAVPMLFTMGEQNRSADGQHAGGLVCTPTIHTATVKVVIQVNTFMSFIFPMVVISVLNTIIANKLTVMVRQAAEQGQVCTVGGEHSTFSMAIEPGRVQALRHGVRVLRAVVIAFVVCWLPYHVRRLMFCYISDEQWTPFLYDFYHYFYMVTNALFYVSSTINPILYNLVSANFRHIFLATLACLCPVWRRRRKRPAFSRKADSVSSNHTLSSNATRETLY

As to `COC(=O)Nc1nc2ccc(C(=O)c3cccs3)cc2[nH]1` [nocodazole], the “effect on endogenous KOC1, KIF11 and microtubules” value in [1] was “collapse and aggregation of endogenous KOC1 and KIF11, along with the depolymerization of microtubules in the cytoplasm”.
“NMU: neuropeptide neuromedin U added into the medium (FRVDEEFQSPFASQSRGYFLFRPRN)”: in test [2], the “growth of COS-7 cells” value is on record as “promoted the growth”.
“Cy5-labeled NMU-25: Cy5-labeled NMU-25 peptide (FRVDEEFQSPFASQSRGYFLFRPRN; ends and bridges not checked; also: Cy5-labeled, site not given here)”: the “binding to the cell surface” value in [3] and in test [4] was “detected binding” throughout.
Take `CCOC(=O)C1=C(C)NC(=S)NC1c1cccc(O)c1` (centres unmarked) [monastrol]: the “time to loss of protrusion and connection to adjacent cells, non-mitotic cells” value in [5] was not above 2 h.
Take “NMU-25: NMU-25 peptide, ligand neuromedin U (FRVDEEFQSPFASQSRGYFLFRPRN)”: the “expression of FOXM1” value in test [6] was “higher expression of FOXM1”. In [7], the “intracellular Ca2+ flux / mobilization” value is recorded as “but not Ca^2+ flux”. Moreover, the “co-localization with FLAG-tagged GHSR1b (confocal microscopy)” value in test [8] (setting [10]) was “located together on the cell membrane”. Moreover, in test [9] (setting [10]), the “co-localization with FLAG-tagged NTSR1 (confocal microscopy)” value was “located together on the cell membrane”.
For “rhodamine-labeled NMU-25: rhodamine-labeled NMU-25 peptide (Phoenix Pharmaceuticals) (FRVDEEFQSPFASQSRGYFLFRPRN; ends and bridges not checked; also: rhodamine-labeled, site not given here)”, in test [8] (dose dependent), the “binding to surface of COS-7 cells expressing GHSR1b (flow cytometry)” value is given as “binding”. Besides, the “binding to surface of COS-7 cells expressing NTSR1 (flow cytometry)” value in [9] (dose dependent) is “binding”.
